Source: patent publication US20260337156A1, “SOLUBILIZING COMPOUNDS” (Vivesto AB, priority 2022, published 2026)
“Also recorded” adds a separate entry of the source.

Test: particle size and polydispersity index of drug micelles over time (ZetaSizer)
Format: physicochemical
Settings: for change of particle size and polydispersity index over time: 0-24 h
Experimental: Micellar size was measured using a ZetaSizer from Malvern Panalytical.
(§1) A stock solution of docetaxel in methanol was mixed with a stock solution of compound 1 in a round bottom flask. The mixture was evaporated to dryness in a rotary evaporator. Final drying was performed in a desiccator to remove residual solvent. Hydration of the dried film was performed by adding water for injection (1.0 mL) to a concentration of 1 mg/mL of docetaxel. The resulting solution was filtered through a 0.22 μm sterile filter and further diluted with 0.9% sodium chloride solution to 0.5 mg/mL of docetaxel. […]
(§2) A stock solution of cyclosporin in methanol was mixed with a stock solution of compound 1 in a round bottom flask. The mixture was evaporated to dryness in a rotary evaporator. Final drying was performed in a desiccator to remove residual solvent. Hydration of the dried film was performed by adding water for injection (1.0 mL) to a concentration of 1 mg/mL of cyclosporin. The resulting solution was filtered through a 0.22 μm sterile filter and further diluted with 0.9% sodium chloride solution to 0.5 mg/mL of cyclosporin. The final weight ratio of cyclosporin to micelle forming agent was 1:3.
(§3) A stock solution of docetaxel in methanol was mixed with a stock solution of compound 3 in a round bottom flask. The mixture was evaporated to dryness in a rotary evaporator. Final drying was performed in a desiccator to remove residual solvent. Hydration of the dried film was performed by adding water for injection (1.0 mL) to a concentration of 1 mg/mL of docetaxel. The resulting solution was filtered through a 0.22 μm sterile filter and further diluted with 0.9% sodium chloride solution to 0.5 mg/mL of Docetaxel. The final weight ratio of docetaxel to micelle forming agent was 1:3.
as §2, with “compound 3” for “compound 1”
as §1, with “compound 4” for “compound 1”
as §3, with “compound 5” for “compound 3”, “of docetaxel.” for “of Docetaxel.”
A stock solution of cabazitaxel in methanol was mixed with a stock solution of compound 5 in a round bottom flask. The mixture was evaporated to dryness in a rotary evaporator. Final drying was performed in a desiccator to remove residual solvent. Hydration of the dried film was performed by adding water for injection (1.0 mL) to a concentration of 1 mg/mL of cabazitaxel. […]

[1] = cyclosporin:compound 1:3, cyclosporin 0.5 mg/mL
[2] = cyclosporin:compound 1:3, cyclosporin 0.5 mg/mL, time 0 h
[3] = cyclosporin:compound 1:3, cyclosporin 0.5 mg/mL, time 1 h
[4] = cyclosporin:compound 1:3, cyclosporin 0.5 mg/mL, time 2 h
[5] = cyclosporin:compound 1:3, cyclosporin 0.5 mg/mL, time 4 h
[6] = cyclosporin:compound 1:3, cyclosporin 0.5 mg/mL, time 6 h
[7] = cyclosporin:compound 1:3, cyclosporin 0.5 mg/mL, time 24 h
[8] = docetaxel:compound 1:3, docetaxel 0.5 mg/mL, time 0 h
[9] = docetaxel:compound 1:3, docetaxel 0.5 mg/mL, time 1 h
[10] = docetaxel:compound 1:3, docetaxel 0.5 mg/mL, time 2 h
[11] = docetaxel:compound 1:3, docetaxel 0.5 mg/mL, time 4 h
[12] = docetaxel:compound 1:3, docetaxel 0.5 mg/mL, time 6 h
[13] = docetaxel:compound 1:3, docetaxel 0.5 mg/mL, time 24 h
[14] = docetaxel:compound 1:5, docetaxel 0.5 mg/mL, time 0 h
[15] = docetaxel:compound 1:5, docetaxel 0.5 mg/mL, time 1 h
[16] = docetaxel:compound 1:5, docetaxel 0.5 mg/mL, time 2 h
[17] = docetaxel:compound 1:5, docetaxel 0.5 mg/mL, time 4 h
[18] = docetaxel:compound 1:5, docetaxel 0.5 mg/mL, time 6 h
[19] = docetaxel:compound 1:5, docetaxel 0.5 mg/mL, time 24 h

Particle size [2] [nm]	Polydispersity index [2]	Particle size [3] [nm]	Polydispersity index [3]	Particle size [4] [nm]	Polydispersity index [4]	Particle size [5] [nm]	Polydispersity index [5]	Particle size [6] [nm]	Polydispersity index [6]	Particle size [7] [nm]	Polydispersity index [7]	SMILES	change of particle size and polydispersity index over time [1]	also measured
8.46	0.31	6.77	0.21	6.60	0.19	6.58	0.18	6.68	0.21	7.39	0.32	COc1cc(C)c(/C=C/C(C)=C/C=C/C(C)=C/C(=O)N(C)CCS(=O)(=O)[O-])c(C)c1C.[Na+] [Compound 3]	Small variations in the particle size and polydispersity index over time were noted; also recorded: The changes were within acceptable range	change of particle size and polydispersity index over time (docetaxel:compound 1:3, docetaxel 0.5 mg/mL): Small variations in the particle size and polydispersity index over time were noted; also recorded: The changes were within acceptable range; Particle size [8]: 6.19 nm; Polydispersity index [8]: 0.11; Particle size [9]: 7.19 nm; Polydispersity index [9]: 0.11; Particle size [10]: 10.06 nm; Polydispersity index [10]: 0.26; Particle size [11]: 10.18 nm; Polydispersity index [11]: 0.27; Particle size [12]: 10.25 nm; Polydispersity index [12]: 0.27; Particle size [13]: 6.20 nm; Polydispersity index [13]: 0.14
30.71	0.10	44.70	0.22	41.29	0.10	44.53	0.10	49.61	0.19	51.37	0.14	COc1cc(C)c(/C=C/C(C)=C/C=C/C(C)=C/C(=O)N(CCS(=O)(=O)[O-])C2CCCCC2)c(C)c1C.[Na+] [Compound 1]	Small increases in the particle size and variations of polydispersity index over time were noted; also recorded: The changes were within acceptable range	change of particle size and polydispersity index over time (docetaxel:compound 1:5, docetaxel 0.5 mg/mL): Small increases in the particle size and polydispersity index over time were noted; also recorded: The changes were within acceptable range; Particle size [14]: 30.77 nm; Polydispersity index [14]: 0.10; Particle size [15]: 36.60 nm; Polydispersity index [15]: 0.16; Particle size [16]: 39.44 nm; Polydispersity index [16]: 0.16; Particle size [17]: 41.38 nm; Polydispersity index [17]: 0.18; Particle size [18]: 41.19 nm; Polydispersity index [18]: 0.20; Particle size [19]: 43.98 nm; Polydispersity index [19]: 0.21
